Article PMC8168342 (Chemical biology & drug design, 2021)

Biological target: T1, androgen receptor (AR) (Homo sapiens, UniProt P10275)
T1 sequence (P10275 1-920): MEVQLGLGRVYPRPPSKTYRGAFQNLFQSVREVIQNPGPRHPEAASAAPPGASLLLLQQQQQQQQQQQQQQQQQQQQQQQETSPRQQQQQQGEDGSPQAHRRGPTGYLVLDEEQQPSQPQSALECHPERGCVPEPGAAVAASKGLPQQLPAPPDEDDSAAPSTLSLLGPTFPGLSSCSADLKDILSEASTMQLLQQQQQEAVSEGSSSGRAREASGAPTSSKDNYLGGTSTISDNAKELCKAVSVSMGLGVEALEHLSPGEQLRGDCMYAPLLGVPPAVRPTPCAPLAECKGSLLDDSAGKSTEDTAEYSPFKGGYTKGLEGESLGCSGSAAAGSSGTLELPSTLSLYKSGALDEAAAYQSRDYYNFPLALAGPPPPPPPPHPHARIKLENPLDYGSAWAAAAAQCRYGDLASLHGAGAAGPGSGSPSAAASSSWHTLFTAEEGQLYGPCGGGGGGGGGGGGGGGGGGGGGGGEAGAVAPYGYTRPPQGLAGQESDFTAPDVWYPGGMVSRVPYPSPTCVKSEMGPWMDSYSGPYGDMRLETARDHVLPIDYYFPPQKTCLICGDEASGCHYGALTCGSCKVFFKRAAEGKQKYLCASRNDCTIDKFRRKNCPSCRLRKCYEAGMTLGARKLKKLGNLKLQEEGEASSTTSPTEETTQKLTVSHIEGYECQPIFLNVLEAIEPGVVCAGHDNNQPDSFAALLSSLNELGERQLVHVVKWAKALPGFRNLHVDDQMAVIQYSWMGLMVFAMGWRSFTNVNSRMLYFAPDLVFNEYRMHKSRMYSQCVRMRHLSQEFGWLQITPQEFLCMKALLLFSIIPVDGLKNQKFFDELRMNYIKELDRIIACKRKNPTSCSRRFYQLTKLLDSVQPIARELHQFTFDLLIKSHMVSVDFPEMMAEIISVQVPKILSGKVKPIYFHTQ
Assay: ARE luciferase reporter assay in MDA-kb2 cells, antagonism of […] DHT
Assay type: cell-based

Row | SMILES | % inhibition at 1 μM
1 | CC1(C)C(=O)N(c2ccc(C#N)c(C(F)(F)F)c2)C(=S)N1c1ccc(CCCCCCO)nc1 [10b, 4-(3-(6-(6-Hydroxyhexyl)pyridin-3-yl)-4,4-dimethyl-5-oxo-2-thioxoimidazolidin-1-yl)-2-(trifluoromethyl) benzonitrile] | 60
2 | CC1(C)C(=O)N(c2ccc(C#N)c(C(F)(F)F)c2)C(=S)N1c1ccc(CCCCCCN=[N+]=[N-])nc1 [11b, 4-(3-(6-(6-Azidohexyl)pyridin-3-yl)-4,4-dimethyl-5-oxo-2-thioxoimidazolidin-1-yl)-2-(trifluoromethyl) benzonitrile] | 60
